# Literature values, collected in patent US12434072B2, “Methods and systems for neural stimulation via visual, auditory and peripheral nerve stimulations” (Cognito Therapeutics, Inc., priority 2016, dated 2025).
# What was measured:
# [1] = 70 kg adult
# [2] = human clinical trials; low (tracer) doses
compound,measurement,setting,value
OC[C@H]1O[C@@H](O)[C@H]([18F])[C@@H](O)[C@@H]1O [FDG],Critical organ for radiation dose,[1],"urinary bladder wall, followed by heart, spleen and pancreas"
same,"Estimated absorbed radiation dose, Adrenals",[1],0.048 rad/mCi
same,"Estimated absorbed radiation dose, Brain",[1],0.07 rad/mCi
same,"Estimated absorbed radiation dose, Breasts",[1],0.034 rad/mCi
same,"Estimated absorbed radiation dose, Gallbladder Wall",[1],0.049 rad/mCi
same,"Estimated absorbed radiation dose, Heart Wall",[1],0.22 rad/mCi
same,"Estimated absorbed radiation dose, Kidneys",[1],0.074 rad/mCi
same,"Estimated absorbed radiation dose, Liver",[1],0.058 rad/mCi
same,"Estimated absorbed radiation dose, Lower Large Intestine Wall",[1],0.051 rad/mCi
same,"Estimated absorbed radiation dose, Lungs",[1],0.064 rad/mCi
same,"Estimated absorbed radiation dose, Muscle",[1],0.039 rad/mCi
same,"Estimated absorbed radiation dose, Ovaries",[1],0.053 rad/mCi
same,"Estimated absorbed radiation dose, Pancreas",[1],0.096 rad/mCi
same,"Estimated absorbed radiation dose, Red marrow",[1],0.047 rad/mCi
same,"Estimated absorbed radiation dose, Skin",[1],0.03 rad/mCi
same,"Estimated absorbed radiation dose, Small Intestine",[1],0.047 rad/mCi
same,"Estimated absorbed radiation dose, Spleen",[1],0.14 rad/mCi
same,"Estimated absorbed radiation dose, Testes",[1],0.041 rad/mCi
same,"Estimated absorbed radiation dose, Thymus",[1],0.044 rad/mCi
same,"Estimated absorbed radiation dose, Thyroid",[1],0.039 rad/mCi
same,"Estimated absorbed radiation dose, Total Body",[1],0.043 rad/mCi
same,"Estimated absorbed radiation dose, Upper Large Intestine Wall",[1],0.046 rad/mCi
same,"Estimated absorbed radiation dose, Urinary bladder wall",[1],0.32 rad/mCi
same,"Estimated absorbed radiation dose, Uterus",[1],0.062 rad/mCi
CNc1ccc(/C=C/c2ccc(OCCOCCOCC[18F])nc2)cc1 [18F-AV-45],"Estimated absorbed radiation dose, Adrenals",[1],0.05 rad/mCi
same,"Estimated absorbed radiation dose, Brain",[1],0.037 rad/mCi
same,"Estimated absorbed radiation dose, Breasts",[1],0.023 rad/mCi
same,Effective Dose,[1]; Effective Dose,0.069 rad/mCi
same,"Estimated absorbed radiation dose, Gallbladder Wall",[1],0.529 rad/mCi
same,"Estimated absorbed radiation dose, Heart Wall",[1],0.048 rad/mCi
same,"Estimated absorbed radiation dose, Kidneys",[1],0.048 rad/mCi
same,"Estimated absorbed radiation dose, Liver",[1],0.238 rad/mCi
same,"Estimated absorbed radiation dose, Lower Large Intestine Wall",[1],0.103 rad/mCi
same,"Estimated absorbed radiation dose, Lungs",[1],0.032 rad/mCi
same,"Estimated absorbed radiation dose, Muscle",[1],0.032 rad/mCi
same,"Estimated absorbed radiation dose, Ovaries",[1],0.065 rad/mCi
same,"Estimated absorbed radiation dose, Pancreas",[1],0.053 rad/mCi
same,"Estimated absorbed radiation dose, Red marrow",[1],0.053 rad/mCi
same,"Estimated absorbed radiation dose, Skin",[1],0.022 rad/mCi
same,"Estimated absorbed radiation dose, Small Intestine",[1],0.242 rad/mCi
same,"Estimated absorbed radiation dose, Spleen",[1],0.033 rad/mCi
same,"Estimated absorbed radiation dose, Testes",[1],0.025 rad/mCi
same,"Estimated absorbed radiation dose, Thymus",[1],0.027 rad/mCi
same,"Estimated absorbed radiation dose, Thyroid",[1],0.025 rad/mCi
same,"Estimated absorbed radiation dose, Total Body",[1],0.043 rad/mCi
same,"Estimated absorbed radiation dose, Upper Large Intestine Wall",[1],0.276 rad/mCi
same,"Estimated absorbed radiation dose, Urinary bladder wall",[1],0.1 rad/mCi
same,"Estimated absorbed radiation dose, Uterus",[1],0.058 rad/mCi
same,Most common adverse events,[2],"headache, injection site reactions (injection site rash, extravasation, hemorrhage, irritation and puncture site hematoma), musculoskeletal pain, fatigue, and nausea"
